Data from paper PMC12250302, “Synthesis, Antimicrobial Activities, and Model of Action of Novel Tetralone Derivatives Containing Aminoguanidinium Moiety” (International Journal of Molecular Sciences, 2025).
Converted amounts (≈) assume the structure as drawn.

Assays:
[1] = tested on: E. faecium ATCC 35667; test: MIC and MBC testing, broth microdilution; assay type: cell-based, Enterococcus faecium; settings: Enterococcus faecium, ATCC35667, E. faecium ATCC 35667; for MIC: 18 h, read-out: MIC; for MBC: read-out: MBC
In short: (§1)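 Two-fold serial dilutions of compounds (DMSO stocks) in MH broth, inoculated with log-phase bacteria at 1 × 10^6 CFU/mL and incubated 18 h at 37 °C. MIC is the lowest concentration with no visible growth; triplicates. Levofloxacin positive, 0.1% DMSO negative control.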

[2] = tested on: S. aureus ATCC 29213; test: MIC and MBC testing, broth microdilution; assay type: cell-based, Staphylococcus aureus; settings: Staphylococcus aureus, ATCC29213, S. aureus ATCC 29213; for MIC: 18 h, read-out: MIC; for MBC: read-out: MBC
In short: as §1

[3] = tested on: K. pneumoniae ATCC 700603; test: MIC and MBC testing, broth microdilution; assay type: cell-based, Klebsiella pneumoniae; settings: Klebsiella pneumoniae; for MIC: ATCC700603, 18 h, read-out: MIC; for MBC: ATCC700603, read-out: MBC
In short: as §1

[4] = tested on: A. baumannii ATCC 19606; test: MIC and MBC testing, broth microdilution; assay type: cell-based, Acinetobacter baumannii; settings: Acinetobacter baumannii; for MIC: ATCC19606, 18 h, read-out: MIC; for MBC: ATCC19606, read-out: MBC
In short: as §1

[5] = tested on: P. aeruginosa ATCC 27853; test: MIC and MBC testing, broth microdilution; assay type: cell-based, Pseudomonas aeruginosa; settings: Pseudomonas aeruginosa; for MIC: ATCC27853, 18 h, read-out: MIC; for MBC: ATCC27853, read-out: MBC
In short: as §1

[6] = tested on: E. coli ATCC 25922; test: MIC and MBC testing, broth microdilution; assay type: cell-based, Escherichia coli; settings: Escherichia coli; for MIC: ATCC25922, 18 h, read-out: MIC; for MBC: ATCC25922, read-out: MBC
In short: as §1

[7] = tested on: MRSA-1; test: MIC and MBC testing, broth microdilution; assay type: cell-based, Staphylococcus aureus; settings: Staphylococcus aureus, MRSA-1; for MIC: 18 h, read-out: MIC; for MBC: read-out: MBC
In short: (§2)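 Strains grown to logarithmic phase were diluted to 1 × 10^6 CFU/mL, combined with compound two-fold dilution series in MH broth, and incubated at 37 °C for 18 h. MIC and MBC were then recorded, with triplicate wells per concentration.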

[8] = tested on: MRSA-2; test: MIC and MBC testing, broth microdilution; assay type: cell-based, Staphylococcus aureus; settings: Staphylococcus aureus, MRSA-2; for MIC: 18 h, read-out: MIC; for MBC: read-out: MBC
In short: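 Compounds in DMSO were serially two-fold diluted in MH broth and mixed with log-phase bacteria diluted to 1 × 10^6 CFU/mL in MH broth, then incubated 18 h at 37 °C. MBC values were also determined. Each concentration was tested in triplicate.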

[9] = tested on: clinical S. aureus isolate LMY45; test: MIC and MBC testing, broth microdilution; assay type: cell-based, Staphylococcus aureus; settings: Staphylococcus aureus, LMY45; for MIC: 18 h, read-out: MIC; for MBC: read-out: MBC
In short: as §2

[10] = tested on: clinical S. aureus isolate LMY46; test: MIC and MBC testing, broth microdilution; assay type: cell-based, Staphylococcus aureus; settings: Staphylococcus aureus, LMY46; for MIC: 18 h, read-out: MIC; for MBC: read-out: MBC
In short: as §2

[11] = tested on: clinical S. aureus isolate LMY47; test: MIC and MBC testing, broth microdilution; assay type: cell-based, Staphylococcus aureus; settings: Staphylococcus aureus, LMY47; for MIC: 18 h, read-out: MIC; for MBC: read-out: MBC
In short: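 Broth microdilution in MH broth: 2-fold compound dilutions from DMSO stocks, log-phase clinical S. aureus isolates or MRSA-1 at 1 × 10^6 CFU/mL, 18 h at 37 °C, each concentration in triplicate. MIC recorded; MBC also determined.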

[12] = tested on: clinical S. aureus isolate LMY48; test: MIC and MBC testing, broth microdilution; assay type: cell-based, Staphylococcus aureus; settings: Staphylococcus aureus, LMY48; for MIC: 18 h, read-out: MIC; for MBC: read-out: MBC
In short: as §2

[13] = tested on: MRSA; test: MIC testing, summary over MRSA strains; assay type: cell-based; settings: Staphylococcus aureus; against MRSA
Description: (§3) The minimum inhibitory concentration (MIC) of all synthesized compounds was tested by the broth microdilution method. In brief, compounds dissolved in DMSO were diluted twice continuously in a 96-well plate with MH broth. The ESKAPE pathogens (E. coli ATCC 25922, S. aureus ATCC 29213, K. pneumoniae ATCC 700603, A. baumannii ATCC 19606, P. aeruginosa ATCC 27853, and E. faecium ATCC 35667), clinical S. aureus isolates (LMY45, LMY46, LMY47, and LMY48) and methicillin-resistant Staphylococcus aureus (MRSA-1 and MRSA-2) were cultured in MH broth to logarithmic growth phase and then diluted to 1 × 10^6 CFU/mL in MH broth. Subsequently, the diluted bacterial solution was mixed with the diluted compound solution in a 96-well plate and incubated at 37 °C for a duration of 18 h. The MIC of the compounds was recorded as the lowest concentration at which no visible growth was observed. […] Each concentration was replicated thrice.

[14] = tested on: S. aureus, including MRSA; test: MIC testing, summary over S. aureus strains; assay type: cell-based; settings: Staphylococcus aureus
Description: as §3

## [H]/N=C(\N)NN=C1CCCc2cc(OCC=C(C)C)ccc21 [Compound 2I, (E)-2-(6-((3-methylbut-2-en-1-yl)oxy)-3,4-dihydronaphthalen-1(2H)-ylidene)hydrazine-1-carboximidamide]
[1]
  MIC: 8 µg/mL (≈ 27.9 µM)
  MBC: 32 µg/mL (≈ 112 µM)
[2]
  MIC: 4 µg/mL (≈ 14 µM)
  MBC: 32 µg/mL (≈ 112 µM)
[3]
  MIC: 32 µg/mL (≈ 112 µM)
  MBC: > 32 µg/mL
[4]
  MIC: 16 µg/mL (≈ 55.9 µM)
  MBC: 32 µg/mL (≈ 112 µM)
[5]
  MIC: 32 µg/mL (≈ 112 µM)
  MBC: 32 µg/mL (≈ 112 µM)
[6]
  MIC: 16 µg/mL (≈ 55.9 µM)
  MBC: 32 µg/mL (≈ 112 µM)
[7]
  MIC: 2 µg/mL (≈ 6.98 µM)
  MBC: 16 µg/mL (≈ 55.9 µM)
[8]
  MIC: 1 µg/mL (≈ 3.49 µM)
  MBC: 2 µg/mL (≈ 6.98 µM)
[9]
  MIC: 2 µg/mL (≈ 6.98 µM)
  MBC: 4 µg/mL (≈ 14 µM)
[10]
  MIC: 2 µg/mL (≈ 6.98 µM)
  MBC: 2 µg/mL (≈ 6.98 µM)
[11]
  MIC: 2 µg/mL (≈ 6.98 µM)
  MBC: 8 µg/mL (≈ 27.9 µM)
[12]
  MIC: 1 µg/mL (≈ 3.49 µM)
  MBC: 2 µg/mL (≈ 6.98 µM)
[13]
  MIC: 1 to 2 µg/mL (≈ 3.49 to 6.98 µM)
[14]
  MIC: 0.5 to 4 µg/mL (≈ 1.75 to 14 µM)

## [H]/N=C(\N)NN=C1CCCc2cc(OCCCC)ccc21 [Compound 2A, (E)-2-(6-butoxy-3,4-dihydronaphthalen-1(2H)-ylidene)hydrazine-1-carboximidamide]
[1]
  MIC: 8 µg/mL (≈ 29.2 µM)
  MBC: 32 µg/mL (≈ 117 µM)
[2]
  MIC: 4 µg/mL (≈ 14.6 µM)
  MBC: > 32 µg/mL
[3]
  MIC: 16 µg/mL (≈ 58.3 µM)
  MBC: > 32 µg/mL
[4]
  MIC: 8 µg/mL (≈ 29.2 µM)
  MBC: 16 µg/mL (≈ 58.3 µM)
[5]
  MIC: 32 µg/mL (≈ 117 µM)
  MBC: 32 µg/mL (≈ 117 µM)
[6]
  MIC: 16 µg/mL (≈ 58.3 µM)
  MBC: > 32 µg/mL
[7]
  MIC: 2 µg/mL (≈ 7.29 µM)
  MBC: 2 µg/mL (≈ 7.29 µM)
[8]
  MIC: 1 µg/mL (≈ 3.64 µM)
  MBC: 2 µg/mL (≈ 7.29 µM)
[9]
  MIC: 2 µg/mL (≈ 7.29 µM)
  MBC: 4 µg/mL (≈ 14.6 µM)
[10]
  MIC: 2 µg/mL (≈ 7.29 µM)
  MBC: 4 µg/mL (≈ 14.6 µM)
[11]
  MIC: 2 µg/mL (≈ 7.29 µM)
  MBC: 2 µg/mL (≈ 7.29 µM)
[12]
  MIC: 1 µg/mL (≈ 3.64 µM)
  MBC: 2 µg/mL (≈ 7.29 µM)
[13]
  MIC: 1 to 2 µg/mL (≈ 3.64 to 7.29 µM)
[14]
  MIC: 0.5 to 4 µg/mL (≈ 1.82 to 14.6 µM)

## [H]/N=C(\N)NN=C1CCCc2cc(OCc3ccc(Br)cc3)ccc21 [Compound 1S, (E)-2-(6-((4-bromobenzyl)oxy)-3,4-dihydronaphthalen-1(2H)-ylidene)hydrazine-1-carboximidamide]
[1]
  MIC: 4 µg/mL (≈ 10.3 µM)
  MBC: 8 µg/mL (≈ 20.7 µM)
[2]
  MIC: 2 µg/mL (≈ 5.16 µM)
  MBC: 8 µg/mL (≈ 20.7 µM)
[3]
  MIC: 16 µg/mL (≈ 41.3 µM)
  MBC: 16 µg/mL (≈ 41.3 µM)
[4]
  MIC: 8 µg/mL (≈ 20.7 µM)
  MBC: 16 µg/mL (≈ 41.3 µM)
[5]
  MIC: > 32 µg/mL
[6]
  MIC: 4 µg/mL (≈ 10.3 µM)
  MBC: 8 µg/mL (≈ 20.7 µM)
[7]
  MIC: 1 µg/mL (≈ 2.58 µM)
  MBC: 4 µg/mL (≈ 10.3 µM)
[8]
  MIC: 1 µg/mL (≈ 2.58 µM)
  MBC: 4 µg/mL (≈ 10.3 µM)
[9]
  MIC: 2 µg/mL (≈ 5.16 µM)
  MBC: 4 µg/mL (≈ 10.3 µM)
[10]
  MIC: 1 µg/mL (≈ 2.58 µM)
  MBC: 4 µg/mL (≈ 10.3 µM)
[11]
  MIC: 2 µg/mL (≈ 5.16 µM)
  MBC: 4 µg/mL (≈ 10.3 µM)
[12]
  MIC: 4 µg/mL (≈ 10.3 µM)
  MBC: 8 µg/mL (≈ 20.7 µM)
[13]
  MIC: 1 to 2 µg/mL (≈ 2.58 to 5.16 µM)
[14]
  MIC: 0.5 to 4 µg/mL (≈ 1.29 to 10.3 µM)
